Literature values, collected in patent US20150216798A1, “NOVEL ORALLY ADMINISTERED PHARMACEUTICAL FORMULATIONS” (Sanovel Ilac Sanayi Ve Ticaret Anonim Sirketi, priority 2012, published 2015).

Details: after oral administration

CN1CC(=O)N2[C@H](c3ccc4c(c3)OCO4)c3[nH]c4ccccc4c3C[C@@H]2C1=O [Tadalafil, (6R-trans)-6-(1,3-benzodioxol-5-yl)-2,3,6,7,12,12a-hexahydro-2-methyl-pyrazine [1′,2′:1,6]pyrido[3,4-b]indol-1,4-dion]
duration of effect: ≤ 36 h
onset of action: 15 min
